Results: patent US5358945A, “Pyrimidine compound and pharmaceutically acceptable salts thereof” (Mitsui Petrochemical Industries, Ltd., priority 1990, dated 1994)

What was measured:
[1] = test system: Mouse neuroblastoma cells NS-20Y; experiment: Neurite appearance in mouse neuroblastoma NS-20Y cells (Table 8); type: cell-based;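 further: cells grown in polyornithine-coated dishes, with timing counted from the start of culture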
mouse = experiment: Acute toxicity in mouse (Table 10); type: in vivo
Experimental: The acute toxicity of the compounds of the invention was examined by the following method.
Male ddy-strain 5-week old mice, 4-6 per group, were used as experimental animals. Each of the compounds was dissolved or suspended in saline and administered perorally (p.o.) or intraperitoneally (i.p.), and the toxicity of the compound was assessed 24 hours after the administration.

Mouse neuro 2a cells = experiment: Neurite outgrowth of mouse neuroblastoma neuro 2a cells (Table 7); type: cell-based; details: mean ± S.D.
Experimental: The biological activities in vitro of the compounds of formula (I) on cells of the nervous system were tested. The cells tested were mouse neuroblastoma cell line neuro-2a (Dainippon Pharmaceutical Co., Ltd.) which have been established as the cells of the nervous system. The above nerve cells were grown in an incubator at 37° C. in the presence of 5% carbon dioxide gas exponentially, and the cultured for a certain period of time together with the compounds of formula (I).
The effects of the compounds of this invention on neuroblastoma cells were examined by the following method.
Mouse neuro 2a cells in the logarithmic growth period in the Dulbecco's modified Eagle's medium [DMEM, containing 100 units/ml of penicillin G sodium and 100 micrograms/ml of streptomycin sulfate] containing 10% of FCS were seeded in a 48-well plate so that the number of cells was 1,000 cells/well, and cultured for one day in 0.25 ml of the culture fluid in each well in an incubator containing 5% of carbon dioxide gas in air at 37° C. The medium was replaced by a medium containing each antibiotics and FCS and the cells were further cultured for 24 hours. Then, a 4% aqueous glutaraldehyde solution in the same amount as a medium (0.25 ml) was added, and the culture was left to stand at room temperature for 2 hours to fix the cells. After washing with water, a 0.05% aqueous solution of methylene blue was added to stain the cells. Under a microscope, the number of cells containing outgrown neurites (cells having at least one neurite with a length of at least two times as large as the long diameter of the cell) was counted visually, and the proportion of these cells in the entire cells was calculated. The well was observed over 5 or more visual fields (at least 2% of the entire surface area of the well) continuous to the left and right from a mark put at the center of the well, and more than 200 cells was counted. One drug compound was used in 6 different concentrations at most, and three runs were conducted for each concentration.

[2] = i.p., 24 hours after administration

Structure (SMILES)	The number of cells in which neurites appeared/Total number of cells ([1]; 24 hour, 0.1 mM)	The number of cells in which neurites appeared/Total number of cells ([1]; 24 hour, 0.2 mM)	The number of cells in which neurites appeared/Total number of cells ([1]; 24 hour, 0.5 mM)	The number of cells in which neurites appeared/Total number of cells ([1]; 48 hour, 0.1 mM)	The number of cells in which neurites appeared/Total number of cells ([1]; 48 hour, 0.2 mM)	The number of cells in which neurites appeared/Total number of cells ([1]; 48 hour, 0.5 mM)	Estimated LD50 (mouse; in vivo, ip) [mg/kg]	Ratio of the number of cells having neurites with a length of at least two times as large as the diameter of cells to the total number of cells (Mouse neuro 2a cells; 0.03 mM) [%]	Ratio of the number of cells having neurites with a length of at least two times as large as the diameter of cells to the total number of cells (Mouse neuro 2a cells; 0.1 mM) [%]	Ratio of the number of cells having neurites with a length of at least two times as large as the diameter of cells to the total number of cells (Mouse neuro 2a cells; 0.3 mM) [%]	Ratio of the number of cells having neurites with a length of at least two times as large as the diameter of cells to the total number of cells (Mouse neuro 2a cells; 1 mM) [%]	Estimated LD50 (mouse; [2]) [mg/kg]	Ratio of the number of cells having neurites with a length of at least two times as large as the diameter of cells to the total number of cells (Mouse neuro 2a cells; 0.01 mM) [%]
CC1CCN(c2nccc(N3CCCC3=O)n2)CC1 [Compound 304]	8/50	12/50	16/50	7/50	14/50	17/50	250 to 500	3.7 ± 1.2	6.8 ± 1.0	17.7 ± 2.9	16.3 ± 4.5	–	–
CCC1CCN(c2nccc(N3CCCC3=O)n2)CC1 [Compound 312]	6/50	13/50	17/50	8/50	13/50	18/50	–	4.1 ± 1.2	12.7 ± 2.8	–	–	> 500	3.8 ± 0.6
O=C1CCCN1c1ccnc(N2CCCC2)n1 [Compound 320]	5/50	–	6/50	–	–	3/50	–	–	4.2 ± 0.3	11.0 ± 0.8	10.7 ± 4.7	> 500	4.2 ± 1.9
CC1CCCCN1c1nccc(N2CCCC2=O)n1 (stereo not drawn) [Compound 328]	3/50	–	–	3/50	–	–	250 to 500	–	–	5.6 ± 1.7	–	–	3.9 ± 0.9
CC1CCCN(c2nccc(N3CCCC3=O)n2)C1 (stereo not drawn) [Compound 336]	3/50	–	–	5/50	–	–	250 to 500	4.0 ± 1.0	5.7 ± 1.6	21.3 ± 3.0	21.2 ± 1.6	–	–
CC1CC(C)CN(c2nccc(N3CCCC3=O)n2)C1 (stereo not drawn) [Compound 344]	3/50	–	–	3/50	–	–	250 to 500	–	7.5 ± 3.3	10.4 ± 3.4	12.5 ± 1.3	–	5.6 ± 1.6
O=C1CCCN1c1ccnc(N2CCc3ccccc3C2)n1 [Compound 352]	–	5/50	–	–	3/50	–	–	–	–	4.2 ± 0.6	–	> 500	3.4 ± 0.1
O=C1CCCN1c1ccnc(N2CCCc3ccccc32)n1 [Compound 360]	5/50	–	6/50	3/50	–	–	–	4.8 ± 1.2	–	6.7 ± 0.8	–	> 500	–
O=C1CCCN1c1ccnc(N2CCC(Cc3ccccc3)CC2)n1 [Compound 368]	–	6/50	–	–	2/50	–	–	–	14.4 ± 1.7	–	–	> 500	3.4 ± 0.3
CCOC(=O)C1CCN(c2nccc(N3CCCC3=O)n2)CC1 [Compound 376]	–	5/50	–	–	5/50	–	–	–	4.4 ± 0.8	6.0 ± 0.5	–	> 500	3.4 ± 0.6
O=C1CCCN1c1ccnc(N2CCNCC2)n1 [Compound 384]	–	10/50	14/50	–	10/50	17/50	–	–	5.1 ± 2.1	8.3 ± 2.7	11.5 ± 1.3	> 500	4.1 ± 1.5
O=C1CCCN1c1ccnc(N2CCOCC2)n1 [Compound 392]	–	10/50	15/50	–	12/50	21/50	–	6.6 ± 2.2	5.6 ± 3.7	6.1 ± 4.0	–	> 500	–
O=C1CCCN1c1ccnc(N2CCSCC2)n1 [Compound 400]	–	8/50	9/50	–	11/50	13/50	–	5.0 ± 0.1	6.3 ± 0.7	11.2 ± 1.5	12.1 ± 1.4	> 500	–
CN1CCN(c2nccc(N3CCCC3=O)n2)CC1 [Compound 408]	–	7/50	10/50	–	8/50	11/50	–	4.9 ± 0.2	–	4.4 ± 0.2	–	> 500	–
O=C1CCCN1c1ccnc(N2CCN(c3ccccc3)CC2)n1 [Compound 416]	–	6/50	9/50	–	7/50	9/50	–	–	4.4 ± 0.4	5.1 ± 1.2	–	> 500	5.0 ± 1.9
